From US20210238169A1, “PROCESS FOR PREPARING A COMPOUND OF FORMULA (XIII)” (PULMOCIDE LIMITED, priority 2014, published 2021)
≈ marks a conversion by molar mass, not a printed value.

Assays:
Aspergillus flavus = assay: Fungus panel screening, CLSI broth microdilution; format: cell-based; conditions: strain ATCC204304, visual inspection (CLSI); for MIC: read-out: MIC100
Experimental: (§1) Fungus panel screening was conducted by Eurofins Panlabs Inc. The MIC and MIC50 values of the test articles were determined following the guidelines of the Clinical and Laboratory Standards Institute, broth microdilution methods for yeast (CLSI M27-A2), (CLSI, 2002) and for filamentous fungi (CLSI M38-A), (CLSI, 2008).

Cryptococcus neoformans = assay: Fungus panel screening, CLSI broth microdilution; format: cell-based; conditions: strain ATCC24067, visual inspection (CLSI); for MIC: read-out: MIC100
Experimental: as §1

[1] = system: Aspergillus fumigatus (ATCC 13073); assay: IFNγ, IL-17 and MDA levels in BALF of Aspergillus fumigatus infected mice; format: in vivo; conditions: for ID50, IFNγ in BALF / ID50, IL-17 in BALF / ID50, MDA in BALF: Prophylactic Regimen
Experimental: (§2) Aspergillus fumigatus (ATCC 13073 [strain: NIH 5233], American Type Culture Collection, Manassas, Va., USA) was grown on Malt agar (Nissui Pharmaceutical, Tokyo, Japan) plates for 6-7 days at RT (24±1° C.). Spores were aseptically dislodged from the agar plates and suspended in sterile distilled water with 0.05% Tween 80 and 0.1% agar. On the day of infection, spore counts were assessed by haemocytometer and the inoculum was adjusted to obtain a concentration of 1.67×10^8 spores mL^−1 of physiological saline.
(§3) On day 0, animals were infected with the spore suspension (35 μL intra-nasally).
Test compounds were administered intra-nasally ([…]) once daily, 30 min before infection on day 0 and then on days 1, 2 and 3 (representing prophylactic treatment) or on days 1, 2 and 3 only (representing therapeutic treatment). For extended prophylactic treatment, test compounds (35 μL of a suspension of 0.0032 or 0.016 mg/mL in physiological saline) were administered intra-nasally once daily for seven days; then 30 min before infection on day 0, and thereafter, either on days 1, 2 and 3 after infection, or on day 0 only. The effects of these treatment paradigms were compared with those obtained when treatment was restricted to one day and 30 min before inoculation and then on days 1, 2 and 3 post infection; or reduced still further to one day and 30 min before infection only.
(§4) Six hours after the last dose, animals were anesthetised, the trachea was cannulated and BALF was collected. The total number of alveolar cells was determined using a haemocytometer, and the numbers of alveolar macrophages and neutrophils were determined by FACS analysis (EPICS® ALTRA II, Beckman Coulter, Inc., Fullerton, Calif., USA) using anti-mouse MOMA2-FITC (macrophage) or anti-mouse 7/4 (neutrophil), respectively, as previously reported (Kimura et al., 2013). The levels of IFN-γ and IL-17 in BALF, and IL-6 and TNFα in serum were determined using Quantikine® mouse IFN-γ, IL-17, IL-6 or TNF-α ELISA kit (R&D systems, Inc., Minneapolis, Minn., USA) respectively. MDA, an oxidative stress marker, was assayed using OxiSelect® TBARS Assay Kits (MDA Quantitation; Cell Biolabs Inc, San Diego, Calif., USA). Aspergillus GM in serum was determination using Platelia GM-EIA kits (Bio-Rad Laboratories, Redmond, Wash., USA). Cut-off index was calculated by the formula: Cut-off index=OD in sample/OD in cut-off control provided in kit. For tissue fungal load assays, 100 mg of lung tissue was removed aseptically and homogenized in 0.2 mL of 0.1% agar in sterile distilled water. Serially diluted lung homogenates were plated on Malt agar plates (50 μL/plate), and incubated at 24±1° C. for 72 to 96 h. The colonies of A. fumigatus on each plate was counted and the fungal titre presented as CFU per gram of lung tissue.

[2] = system: Aspergillus fumigatus (ATCC 13073); assay: Extended prophylactic dosing: CFU in lung and GM in BALF and serum; format: in vivo, mice
Experimental: as §2, §3
Test compounds were administered intra-nasally (35 μL of a suspension of 0.08-2.00 mg/mL in physiological saline) once daily, 30 min before infection on day 0 and then on days 1, 2 and 3 (representing prophylactic treatment) or on days 1, 2 and 3 only (representing therapeutic treatment). For extended prophylactic treatment, test compounds (35 μL of a suspension of 0.0032 or 0.016 mg/mL in physiological saline) were administered intra-nasally once daily for seven days; then 30 min before infection on day 0, and thereafter, either on days 1, 2 and 3 after infection, or on day 0 only. The effects of these treatment paradigms were compared with those obtained when treatment was restricted to one day and 30 min before inoculation and then on days 1, 2 and 3 post infection; or reduced still further to one day and 30 min before infection only.
as §4

[3] = prophylactic, 0.08 mg/mL intra-nasally
[4] = prophylactic, 0.4 mg/mL intra-nasally
[5] = prophylactic, 2 mg/mL intra-nasally
[6] = therapeutic, 0.4 mg/mL intra-nasally
[7] = therapeutic, 2 mg/mL intra-nasally
[8] = therapeutic, 10 mg/mL intra-nasally
[9] = days dosed −1, 0, 16 μg/mL intra-nasally
[10] = days dosed −1 to +3, 3.2 μg/mL intra-nasally
[11] = days dosed −1 to +3, 16 μg/mL intra-nasally
[12] = days dosed −7 to 0, 16 μg/mL intra-nasally
[13] = days dosed −7 to +3, 3.2 μg/mL intra-nasally
[14] = days dosed −7 to +3, 16 μg/mL intra-nasally

SMILES: Cc1cc(N2CCN(c3ccc(C(=O)Nc4ccc(F)cc4)cc3)CC2)ccc1OC[C@@H]1CO[C@@](Cn2cncn2)(c2ccc(F)cc2F)C1 [Compound (I), 4-(4-(4-(((3R,5R)-5-((1H-1,2,4-triazol-1-yl)methyl)-5-(2,4-difluorophenyl)tetrahydrofuran-3-yl)methoxy)-3-methylphenyl)piperazin-1-yl)-N-(4-fluorophenyl)benzamide]
- MIC50 (Aspergillus flavus): 1 µg/mL (≈ 1.46 µM)
- MIC (Aspergillus flavus): > 8 µg/mL
- MIC50 (Cryptococcus neoformans): 0.008 µg/mL (≈ 0.0117 µM)
- MIC (Cryptococcus neoformans): 1 µg/mL (≈ 1.46 µM)
- ID50, IFNγ in BALF [1]: <80 µg/mL
- ID50, IL-17 in BALF [1]: 74 µg/mL (≈ 108 µM)
- ID50, MDA in BALF [1]: 110 µg/mL (≈ 161 µM)
- IFNγ concentration in BALF [1, 3]: 3.7 ± 1.7 pg/mL
- IFNγ in BALF, % Inhibition [1, 3]: 60%
- IL-17 concentration in BALF [1, 3]: 9.8 ± 5.3 pg/mL
- IL-17 in BALF, % Inhibition [1, 3]: 51%
- MDA concentration in BALF [1, 3]: 0.96 ± 0.32 µg/mL
- MDA in BALF, % Inhibition [1, 3]: 47%
- IFNγ concentration in BALF [1, 4]: 3.0 ± 0.8 pg/mL
- IFNγ in BALF, % Inhibition [1, 4]: 67%
- IL-17 concentration in BALF [1, 4]: 6.7 ± 4.9 pg/mL
- IL-17 in BALF, % Inhibition [1, 4]: 66%
- MDA concentration in BALF [1, 4]: 0.57 ± 0.22 µg/mL
- MDA in BALF, % Inhibition [1, 4]: 68%
- IFNγ concentration in BALF [1, 5]: 2.5 ± 0.3 pg/mL
- IFNγ in BALF, % Inhibition [1, 5]: 73%
- IL-17 concentration in BALF [1, 5]: 3.2 ± 0.8 pg/mL
- IL-17 in BALF, % Inhibition [1, 5]: 84%
- MDA concentration in BALF [1, 5]: 0.34 ± 0.05 µg/mL
- MDA in BALF, % Inhibition [1, 5]: 81%
- IFNγ concentration in BALF [1, 6]: 4.3 ± 2.2 pg/mL
- IFNγ in BALF, % Inhibition [1, 6]: 53%
- IL-17 concentration in BALF [1, 6]: 8.5 ± 2.9 pg/mL
- IL-17 in BALF, % Inhibition [1, 6]: 57%
- MDA concentration in BALF [1, 6]: 0.45 ± 0.10 µg/mL
- MDA in BALF, % Inhibition [1, 6]: 75%
- IFNγ concentration in BALF [1, 7]: 3.3 ± 0.8 pg/mL
- IFNγ in BALF, % Inhibition [1, 7]: 64%
- IL-17 concentration in BALF [1, 7]: 4.0 ± 0.8 pg/mL
- IL-17 in BALF, % Inhibition [1, 7]: 80%
- MDA concentration in BALF [1, 7]: 0.37 ± 0.10 µg/mL
- MDA in BALF, % Inhibition [1, 7]: 79%
- IFNγ concentration in BALF [1, 8]: 2.1 ± 0.3 pg/mL
- IFNγ in BALF, % Inhibition [1, 8]: 77%
- IL-17 concentration in BALF [1, 8]: 2.9 ± 0.7 pg/mL
- IL-17 in BALF, % Inhibition [1, 8]: 85%
- MDA concentration in BALF [1, 8]: 0.25 ± 0.05 µg/mL
- MDA in BALF, % Inhibition [1, 8]: 86%
- CFU in lung [2, 9]: 13.1 ± 2.6 /mg of lung
- CFU in lung, % inhibition [2, 9]: 62%
- GM in BALF [2, 9]: 4.5 ± 0.50 COI
- GM in BALF, % inhibition [2, 9]: 12%
- GM in serum [2, 9]: 4.0 ± 0.88 COI
- GM in serum, % inhibition [2, 9]: 7%
- CFU in lung [2, 10]: 9.5 ± 3.3 /mg of lung
- CFU in lung, % inhibition [2, 10]: 73%
- GM in BALF [2, 10]: 2.8 ± 0.71 COI
- GM in BALF, % inhibition [2, 10]: 45%
- GM in serum [2, 10]: 2.2 ± 0.69 COI
- GM in serum, % inhibition [2, 10]: 49%
- CFU in lung [2, 11]: 6.1 ± 2.8 /mg of lung
- CFU in lung, % inhibition [2, 11]: 82%
- GM in BALF [2, 11]: 2.2 ± 0.61 COI
- GM in BALF, % inhibition [2, 11]: 57%
- GM in serum [2, 11]: 1.6 ± 0.41 COI
- GM in serum, % inhibition [2, 11]: 63%
- CFU in lung [2, 12]: 6.7 ± 1.7 /mg of lung
- CFU in lung, % inhibition [2, 12]: 81%
- GM in BALF [2, 12]: 2.3 ± 0.52 COI
- GM in BALF, % inhibition [2, 12]: 55%
- GM in serum [2, 12]: 1.7 ± 0.59 COI
- GM in serum, % inhibition [2, 12]: 60%
- CFU in lung [2, 13]: 8.3 ± 2.0 /mg of lung
- CFU in lung, % inhibition [2, 13]: 76%
- GM in BALF [2, 13]: 2.6 ± 0.36 COI
- GM in BALF, % inhibition [2, 13]: 49%
- GM in serum [2, 13]: 1.8 ± 0.43 COI
- GM in serum, % inhibition [2, 13]: 58%
- CFU in lung [2, 14]: 5.0 ± 2.3 /mg of lung
- CFU in lung, % inhibition [2, 14]: 86%
- GM in BALF [2, 14]: 1.7 ± 0.39 COI
- GM in BALF, % inhibition [2, 14]: 67%
- GM in serum [2, 14]: 1.4 ± 0.20 COI
- GM in serum, % inhibition [2, 14]: 67%

SMILES: CC[C@@H]([C@H](C)O)n1ncn(-c2ccc(N3CCN(c4ccc(OC[C@@H]5CO[C@@](Cn6cncn6)(c6ccc(F)cc6F)C5)cc4)CC3)cc2)c1=O [Posaconazole]
- MIC50 (Aspergillus flavus): 0.063 µg/mL (≈ 0.0899 µM)
- MIC (Aspergillus flavus): 0.13 µg/mL (≈ 0.186 µM)
- MIC50 (Cryptococcus neoformans): 0.016 µg/mL (≈ 0.0228 µM)
- MIC (Cryptococcus neoformans): 0.25 µg/mL (≈ 0.357 µM)
- ID50, IFNγ in BALF [1]: 220 µg/mL (≈ 314 µM)
- ID50, IL-17 in BALF [1]: 610 µg/mL (≈ 870 µM)
- ID50, MDA in BALF [1]: 690 µg/mL (≈ 985 µM)
